Common to all, as to type: in vivo
The test system of assay [1] is Lolium perenne (LOLPE). The assay can be described thus: Post-emergence herbicidal activity, glasshouse pot test. The following applies: Lolium perenne, 312 h, rate 250 g/ha, evaluated after 13 days, read-out: Post-emergence activity LOLPE (100=total damage to plant; 0=no damage to plant). A digest of the protocol: (§1)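 Rating: 0 (no damage) to 100 (total damage), 13 days after application. Application: aqueous spray from a.i. in acetone/water (50:50) + 0.5% Tween 20, one day (pre) or 8 days (post) after sowing. Glasshouse: 24/16° C, 14 h light, 65% humidity.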

Assay [2] relates to Alopecurus myosuroides (ALOMY). Described as above. The following applies: Alopecurus myosuroides, 312 h, rate 250 g/ha, evaluated after 13 days, read-out: Post-emergence activity ALOMY (100=total damage to plant; 0=no damage to plant). A digest of the protocol:
as §1

The subject of assay [3] is Avena fatua (AVEFA). The assay is described as above. The following applies: Avena fatua, 312 h, rate 250 g/ha, evaluated after 13 days, read-out: Post-emergence activity AVEFA (100=total damage to plant; 0=no damage to plant). The method in brief:
as §1

Assay [4] concerns Echinochloa crus-galli (ECHCG). Described as above. The following applies: Echinochloa crus-galli, 312 h, rate 250 g/ha, evaluated after 13 days, read-out: Post-emergence activity ECHCG (100=total damage to plant; 0=no damage to plant). The method in brief:
as §1

The test system of assay [5] is Lolium perenne (LOLPE). The assay can be described thus: Pre-emergence herbicidal activity, glasshouse pot test. To be noted: Lolium perenne, 312 h, Rate 250 g/ha, evaluated after 13 days, read-out: Pre-emergence activity LOLPE (100=total damage to plant; 0=no damage to plant). The method in brief: as §1
The test system of assay [6] is Alopecurus myosuroides (ALOMY). Described as above. To be noted: Alopecurus myosuroides, 312 h, Rate 250 g/ha, evaluated after 13 days, read-out: Pre-emergence activity ALOMY (100=total damage to plant; 0=no damage to plant). A digest of the protocol: as §1
In assay [7] the test system is Avena fatua (AVEFA). Described as above. The following applies: Avena fatua, 312 h, Rate 250 g/ha, evaluated after 13 days, read-out: Pre-emergence activity AVEFA (100=total damage to plant; 0=no damage to plant). A digest of the protocol: as §1
The subject of assay [8] is Echinochloa crus-galli (ECHCG). The description is as above. To be noted: Echinochloa crus-galli, 312 h, Rate 250 g/ha, evaluated after 13 days, read-out: Pre-emergence activity ECHCG (100=total damage to plant; 0=no damage to plant). The method in brief: as §1

Regarding `CC1(C)OC(C)(C)C(O)=C(c2cc(Oc3ncc(Cl)cc3C(F)(F)F)ccc2C2CC2)C1=O` [Example A-377], the pest or weed control at 250 g/ha with Lolium perenne (LOLPE) [1] was determined as 100%; in assay [2] it was 100%; in the assay with Avena fatua (AVEFA) [3] it was 100%; in assay [4], 100%; in the assay on Lolium perenne (LOLPE) [5] (pre-emergence) it was 80%; in assay [6] (pre-emergence), 70%. Also, the values for the pest or weed control at 250 g/ha (in the assay on Avena fatua (AVEFA) [7] (pre-emergence); in assay [8] (pre-emergence)) were 60% and 100%, respectively.

In the case of `CCc1ccc(Oc2ncc(Cl)cc2F)cc1C1=C(O)CC(C)(C)CC1=O` [Example A-85], the pest or weed control at 250 g/ha came out at 90% with Lolium perenne (LOLPE) [1] (glasshouse); 100% in assay [2] (glasshouse); 90% in the assay with Avena fatua (AVEFA) [3] (glasshouse); 100% in assay [4] (glasshouse); 100% with Lolium perenne (LOLPE) [5] (pre-emergence spray); 100% in assay [6] (pre-emergence spray). Moreover, the pest or weed control at 250 g/ha (in the assay on Avena fatua (AVEFA) [7] (pre-emergence spray); in assay [8] (pre-emergence spray)) was 100% throughout.

As for `CCc1ccc(Oc2ncc(Cl)cc2C(F)(F)F)cc1C1=C(O)CC2(CCOCC2)CC1=O` [Example A-268], the pest or weed control at 250 g/ha in the assay with Lolium perenne (LOLPE) [1] (glasshouse) worked out at 70%; in assay [2] (glasshouse), 90%; in the assay on Avena fatua (AVEFA) [3] (glasshouse), 90%; in assay [4] (glasshouse), 100%; in the assay on Lolium perenne (LOLPE) [5] (pre-emergence spray) it was 100%; in assay [6] (pre-emergence spray) it was 90%. In addition, the pest or weed control at 250 g/ha in the assay with Avena fatua (AVEFA) [7] (pre-emergence spray) was found to be 80%; in assay [8] (pre-emergence spray), 100%.

As to `CCc1ccc(Oc2ccc([N+](=O)[O-])cn2)cc1C1=C(O)C(C)(C)OC(C)(C)C1=O` [Example A-149], the pest or weed control at 250 g/ha turned out to be 30% in the assay with Lolium perenne (LOLPE) [1] (glasshouse); 10% in assay [2] (glasshouse); 30% in the assay on Avena fatua (AVEFA) [3] (glasshouse); 50% in assay [4] (glasshouse); 20% with Lolium perenne (LOLPE) [5] (pre-emergence spray); 10% in assay [6] (pre-emergence spray). Besides, the pest or weed control at 250 g/ha is 10% with Avena fatua (AVEFA) [7] (pre-emergence spray) and 60% in assay [8] (pre-emergence spray).

Turning to `CCc1ccc(Oc2ccc(C(F)(F)F)cc2C#N)cc1C1=C(O)C(C)(C)OC(C)(C)C1=O` [Example A-100], the pest or weed control at 250 g/ha came out at 40% in the assay on Lolium perenne (LOLPE) [1] (glasshouse); 80% in assay [2] (glasshouse); 80% in the assay on Avena fatua (AVEFA) [3] (glasshouse); 90% in assay [4] (glasshouse); 80% in the assay on Lolium perenne (LOLPE) [5] (pre-emergence spray); 40% in assay [6] (pre-emergence spray). Further, the pest or weed control at 250 g/ha with Avena fatua (AVEFA) [7] (pre-emergence spray) was determined as 40%; in assay [8] (pre-emergence spray), 100%.

`CCc1ccc(Oc2ncc(Cl)cc2C(F)(F)F)cc1C1=C(O)[C@H]2CC[C@H](C2)C1=O` [Example A-346]: the pest or weed control at 250 g/ha in the assay with Lolium perenne (LOLPE) [1] was determined as 90%; in assay [2], 70%; with Avena fatua (AVEFA) [3], 90%; in assay [4] it was 100%; in the assay on Lolium perenne (LOLPE) [5] (pre-emergence), 100%; in assay [6] (pre-emergence), 100%. In addition, the pest or weed control at 250 g/ha was 90% in the assay on Avena fatua (AVEFA) [7] (pre-emergence) and 100% in assay [8] (pre-emergence).

`CCc1ccc(Oc2ccc(Br)cc2[N+](=O)[O-])cc1C1=C(O)C(C)(C)OC(C)(C)C1=O` [Example A-227]: the pest or weed control at 250 g/ha in the assay with Lolium perenne (LOLPE) [1] (glasshouse) amounted to 70%; in assay [2] (glasshouse), 70%; in the assay on Avena fatua (AVEFA) [3] (glasshouse), 60%; in assay [4] (glasshouse) it was 90%; in the assay on Lolium perenne (LOLPE) [5] (pre-emergence spray) it was 60%; in assay [6] (pre-emergence spray), 30%. Further, the pest or weed control at 250 g/ha turned out to be 20% in the assay on Avena fatua (AVEFA) [7] (pre-emergence spray) and 80% in assay [8] (pre-emergence spray).

As for `CCc1ccc(Oc2ccc([N+](=O)[O-])c(C(F)(F)F)c2)cc1C1=C(O)C(C)(C)OC(C)(C)C1=O` [Example A-197], the pest or weed control at 250 g/ha in the assay on Lolium perenne (LOLPE) [1] (glasshouse) was determined as 60%; in assay [2] (glasshouse) it was 70%; in the assay on Avena fatua (AVEFA) [3] (glasshouse), 70%; in assay [4] (glasshouse) it was 100%; with Lolium perenne (LOLPE) [5] (pre-emergence spray) it was 20%; in assay [6] (pre-emergence spray) it was 0%. Further, the pest or weed control at 250 g/ha was 10% with Avena fatua (AVEFA) [7] (pre-emergence spray) and 30% in assay [8] (pre-emergence spray).

Values taken from patent publication US8865623B2, “Herbicidally active cyclic diones and derivatives thereof, processes for their preparation, compositions, and method of controlling weeds” (Syngenta Limited, priority 2009, dated 2014).
